According to patent publication US20260273252A1, “GROOVED MICRONEEDLES FOR PASSIVE AND ACTIVE DRUG DELIVERY” (Trustees of Tufts College, priority 2023, published 2026):

How the values were obtained:
[1] = test system: PTSD symptoms in patients; conditions: cited from earlier work
[2] = test system: thermal nociception in rodents; assay: Hot plate test, noxious thermal stimulus of 50 degrees Celsius (pilot studies); format: in vivo; conditions: for antinociceptive effects on thermal nociception (latency to lick a hind paw): 10 mg/kg i.p. for three consecutive days, hot plate 50 degrees Celsius, males, 24, 48 and 72 hours post treatment; for block of the antinociceptive effects of (2R,6R)-HNK by antagonist pretreatment: hot plate, given with (2R,6R)-HNK
Protocol: In addition, pilot studies were conducted to assess the antinociceptive potential of (2R,6R)-HNK (10 mg/kg intraperitoneal (i.p.) injection administered for three consecutive days) in response to a noxious thermal stimulus of 50 degrees Celsius on the hot plate apparatus. The latency to lick a hind paw was measured in males before and after (2R,6R)-HNK treatment at 24, 48, and 72 hours post treatment.

gait function = assay: Forced swim test, gait function; format: in vivo; conditions: compared with ketamine
[3] = test system: rodent model for CRPS and postoperative pain; conditions: cited from earlier work
[4] = test system: mice with a spinal nerve injury; conditions: 24 hours following a single injection; cited from earlier work
[5] = 6 times over a 2-week period, 0.5 mg/kg 40-min infusions, treatment resistant subjects

CNC1(c2ccccc2Cl)CCCCC1=O (racemic) [ketamine]
median time to relapse after the cessation of treatment [1, 5]: 41 days
start of persistent remission following the first infusion [1, 5]: ≥ 24 h
persistence of resolution of PTSD symptoms before re-emergence ([1]; single dose, adults and children): over one
patient health questionnaire score after treatment ([1]; six 1-hour infusions, mean final dose 163.83 mg, reduced from 18.5): 9.5
PTSD checklist for DSM-5 after treatment ([1]; six 1-hour infusions, mean final dose 163.83 mg, reduced from 56.2): 31.3

N[C@]1(c2ccccc2Cl)CCC[C@H](O)C1=O [(2S,6S)-HNK]
antinociceptive effects on thermal nociception (latency to lick a hind paw) [2]: not extended

NS(=O)(=O)c1cccc2c1c([N+](=O)[O-])cc1nc(O)c(O)nc12 [NBQX]
block of the antinociceptive effects of (2R,6R)-HNK by antagonist pretreatment [2]: effectively block

O=C1CC[C@@]2(O)[C@H]3Cc4ccc(O)c5c4[C@@]2(CCN3CC2CC2)[C@H]1O5 [naltrexone]
block of the antinociceptive effects of (2R,6R)-HNK by antagonist pretreatment [2]: failed to block

N[C@@]1(c2ccccc2Cl)CCC[C@@H](O)C1=O [(2R,6R)-HNK, 2R,6R-hydroxynorketamine]
antinociceptive effects on thermal nociception (latency to lick a hind paw) [2]: long-lasting antinociceptive effects
impairment of gait function (gait function): does not impair gait function significantly
persistence of analgesic effects following administration [3]: up to five
antinociceptive effects after a single injection [4]: Antinociceptive effects
